Data reported in patent publication US20230049952A1, “METHODS AND COMPOUNDS FOR RESTORING MUTANT P53 FUNCTION” (PMV Pharmaceuticals, Inc., priority 2020, published 2023).

Tested on: p53 signaling pathway in MT373 tumors
Assay: MT373 syngeneic sarcoma model: mouse p53 signaling pathway profiling panel
Assay type: in vivo

With CCn1c(C#CCNc2ccccc2)cc2cc(CNC3CCN(C)CC3)ccc21 [Compound 1, 1-Anilino-3-{1-ethyl-5-[(1-methyl-4-piperidylamino)methyl]-1H-indol-2-yl}-2-propyne] the “Apex1 fold increase or percent reduction vs vehicle control” value (75 mg/kg BIDx1, 8 h) was 19.97 fold or %, the “Atm fold increase or percent reduction vs vehicle control” value (75 mg/kg BIDx1, 8 h) was 13.42 fold or % and the “Atr fold increase or percent reduction vs vehicle control” value (75 mg/kg BIDx1, 8 h) was 8.05 fold or %. The “Bag1 fold increase or percent reduction vs vehicle control” value (75 mg/kg BIDx1, 8 h) was 24.87 fold or %, the “Bax fold increase or percent reduction vs vehicle control” value (75 mg/kg BIDx1, 8 h) was 1.97 fold or % and the “Bbc3 fold increase or percent reduction vs vehicle control” value (75 mg/kg BIDx1, 8 h) was 2.97 fold or %. The “Bcl2 fold increase or percent reduction vs vehicle control” value (75 mg/kg BIDx1, 8 h) was 7.84 fold or %, the “Bid fold increase or percent reduction vs vehicle control” value (75 mg/kg BIDx1, 8 h) was 1.19 fold or % and the “Birc5 fold increase or percent reduction vs vehicle control” value (75 mg/kg BIDx1, 8 h) was 15.16 fold or %. For the same compound, the “Brca1 fold increase or percent reduction vs vehicle control” value (75 mg/kg BIDx1, 8 h) was 3.14 fold or %, the “Brca2 fold increase or percent reduction vs vehicle control” value (75 mg/kg BIDx1, 8 h) was 5.75 fold or % and the “Btg2 fold increase or percent reduction vs vehicle control” value (75 mg/kg BIDx1, 8 h) was 14.84 fold or %. For the same compound, the “Casp2 fold increase or percent reduction vs vehicle control” value (75 mg/kg BIDx1, 8 h) was 17.74 fold or %, the “Ccnb1 fold increase or percent reduction vs vehicle control” value (75 mg/kg BIDx1, 8 h) was 4.81 fold or % and the “Ccne1 fold increase or percent reduction vs vehicle control” value (75 mg/kg BIDx1, 8 h) was 12.14 fold or %. The “Ccng1 fold increase or percent reduction vs vehicle control” value (75 mg/kg BIDx1, 8 h) was 6.19 fold or %, the “Ccnh fold increase or percent reduction vs vehicle control” value (75 mg/kg BIDx1, 8 h) was 15.28 fold or % and the “Cdc25a fold increase or percent reduction vs vehicle control” value (75 mg/kg BIDx1, 8 h) was 15.20 fold or %. The “Cdk1 fold increase or percent reduction vs vehicle control” value (75 mg/kg BIDx1, 8 h) was 32.00 fold or %, the “Cdk4 fold increase or percent reduction vs vehicle control” value (75 mg/kg BIDx1, 8 h) was 37.50 fold or % and the “Cdkn1a fold increase or percent reduction vs vehicle control” value (75 mg/kg BIDx1, 8 h) was 7.14 fold or %. For the same compound, the “Cdkn2a fold increase or percent reduction vs vehicle control” value (75 mg/kg BIDx1, 8 h) was 31.09 fold or %, the “Chek1 fold increase or percent reduction vs vehicle control” value (75 mg/kg BIDx1, 8 h) was 19.58 fold or % and the “Cradd fold increase or percent reduction vs vehicle control” value (75 mg/kg BIDx1, 8 h) was 21.01 fold or %. The “Cul9 fold increase or percent reduction vs vehicle control” value (75 mg/kg BIDx1, 8 h) was 1.73 fold or %, the “Dapk1 fold increase or percent reduction vs vehicle control” value (75 mg/kg BIDx1, 8 h) was 1.37 fold or % and the “Dnmt1 fold increase or percent reduction vs vehicle control” value (75 mg/kg BIDx1, 8 h) was 1.16 fold or %. The “E2f1 fold increase or percent reduction vs vehicle control” value (75 mg/kg BIDx1, 8 h) was 1.05 fold or %, the “E2f3 fold increase or percent reduction vs vehicle control” value (75 mg/kg BIDx1, 8 h) was 21.77 fold or % and the “Egfr fold increase or percent reduction vs vehicle control” value (75 mg/kg BIDx1, 8 h) was 42.31 fold or %. For the same compound, the “Egr1 fold increase or percent reduction vs vehicle control” value (75 mg/kg BIDx1, 8 h) was 59.72 fold or %, the “Ep300 fold increase or percent reduction vs vehicle control” value (75 mg/kg BIDx1, 8 h) was 15.26 fold or % and the “Ercc1 fold increase or percent reduction vs vehicle control” value (75 mg/kg BIDx1, 8 h) was 20.74 fold or %. For the same compound, the “Esr1 fold increase or percent reduction vs vehicle control” value (75 mg/kg BIDx1, 8 h) was 1.22 fold or %, the “Fadd fold increase or percent reduction vs vehicle control” value (75 mg/kg BIDx1, 8 h) was 2.66 fold or % and the “Fas fold increase or percent reduction vs vehicle control” value (75 mg/kg BIDx1, 8 h) was 1.75 fold or %. The “Fasl fold increase or percent reduction vs vehicle control” value (75 mg/kg BIDx1, 8 h) was 1.24 fold or %, the “Foxo3 fold increase or percent reduction vs vehicle control” value (75 mg/kg BIDx1, 8 h) was 1.04 fold or % and the “Gadd45a fold increase or percent reduction vs vehicle control” value (75 mg/kg BIDx1, 8 h) was 25.34 fold or %. The “Hif1a fold increase or percent reduction vs vehicle control” value (75 mg/kg BIDx1, 8 h) was 1.26 fold or %, the “Il6 fold increase or percent reduction vs vehicle control” value (75 mg/kg BIDx1, 8 h) was 68.47 fold or % and the “Jun fold increase or percent reduction vs vehicle control” value (75 mg/kg BIDx1, 8 h) was 22.75 fold or %. For the same compound, the “Kras fold increase or percent reduction vs vehicle control” value (75 mg/kg BIDx1, 8 h) was 1.03 fold or %, the “Lig4 fold increase or percent reduction vs vehicle control” value (75 mg/kg BIDx1, 8 h) was 1.13 fold or % and the “Mdm2 fold increase or percent reduction vs vehicle control” value (75 mg/kg BIDx1, 8 h) was 5.35 fold or %. For the same compound, the “Mdm4 fold increase or percent reduction vs vehicle control” value (75 mg/kg BIDx1, 8 h) was 1.03 fold or %, the “Mel1 fold increase or percent reduction vs vehicle control” value (75 mg/kg BIDx1, 8 h) was 24.40 fold or % and the “Mlh1 fold increase or percent reduction vs vehicle control” value (75 mg/kg BIDx1, 8 h) was 12.48 fold or %. For the same compound, the “Msh2 fold increase or percent reduction vs vehicle control” value (75 mg/kg BIDx1, 8 h) was 31.49 fold or %, the “Myod1 fold increase or percent reduction vs vehicle control” value (75 mg/kg BIDx1, 8 h) was 4.56 fold or % and the “Nf1 fold increase or percent reduction vs vehicle control” value (75 mg/kg BIDx1, 8 h) was 31.85 fold or %. For the same compound, the “Nfkb1 fold increase or percent reduction vs vehicle control” value (75 mg/kg BIDx1, 8 h) was 11.36 fold or %, the “Pcna fold increase or percent reduction vs vehicle control” value (75 mg/kg BIDx1, 8 h) was 32.47 fold or % and the “Pmaip1 fold increase or percent reduction vs vehicle control” value (75 mg/kg BIDx1, 8 h) was 1.60 fold or %. For the same compound, the “Ppm1d fold increase or percent reduction vs vehicle control” value (75 mg/kg BIDx1, 8 h) was 1.48 fold or %, the “Prc1 fold increase or percent reduction vs vehicle control” value (75 mg/kg BIDx1, 8 h) was 1.28 fold or % and the “Prkca fold increase or percent reduction vs vehicle control” value (75 mg/kg BIDx1, 8 h) was 5.77 fold or %. The “Pten fold increase or percent reduction vs vehicle control” value (75 mg/kg BIDx1, 8 h) was 0.35 fold or %, the “Pttg1 fold increase or percent reduction vs vehicle control” value (75 mg/kg BIDx1, 8 h) was 1.04 fold or % and the “Rb1 fold increase or percent reduction vs vehicle control” value (75 mg/kg BIDx1, 8 h) was 16.87 fold or %. For the same compound, the “Rela fold increase or percent reduction vs vehicle control” value (75 mg/kg BIDx1, 8 h) was 1.12 fold or %, the “Rprm fold increase or percent reduction vs vehicle control” value (75 mg/kg BIDx1, 8 h) was 3.08 fold or % and the “Serpinb5 fold increase or percent reduction vs vehicle control” value (75 mg/kg BIDx1, 8 h) was 3.96 fold or %. The “Sesn2 fold increase or percent reduction vs vehicle control” value (75 mg/kg BIDx1, 8 h) was 3.24 fold or %, the “Sfn fold increase or percent reduction vs vehicle control” value (75 mg/kg BIDx1, 8 h) was 1.12 fold or % and the “Sirt1 fold increase or percent reduction vs vehicle control” value (75 mg/kg BIDx1, 8 h) was 1.09 fold or %. For the same compound, the “Stat1 fold increase or percent reduction vs vehicle control” value (75 mg/kg BIDx1, 8 h) was 1.35 fold or %, the “Tnf fold increase or percent reduction vs vehicle control” value (75 mg/kg BIDx1, 8 h) was 1.85 fold or % and the “Traf1 fold increase or percent reduction vs vehicle control” value (75 mg/kg BIDx1, 8 h) was 1.23 fold or %. The “Trp53bp2 fold increase or percent reduction vs vehicle control” value (75 mg/kg BIDx1, 8 h) was 12.87 fold or %, the “Trp53 fold increase or percent reduction vs vehicle control” value (75 mg/kg BIDx1, 8 h) was 1.13 fold or % and the “Apex1 fold increase or percent reduction vs vehicle control” value (75 mg/kg BIDx1, 24 h) was 30.49 fold or %. For the same compound, the “Atm fold increase or percent reduction vs vehicle control” value (75 mg/kg BIDx1, 24 h) was 23.68 fold or %, the “Atr fold increase or percent reduction vs vehicle control” value (75 mg/kg BIDx1, 24 h) was 10.08 fold or % and the “Bag1 fold increase or percent reduction vs vehicle control” value (75 mg/kg BIDx1, 24 h) was 25.05 fold or %. The “Bax fold increase or percent reduction vs vehicle control” value (75 mg/kg BIDx1, 24 h) was 1.60 fold or %, the “Bbc3 fold increase or percent reduction vs vehicle control” value (75 mg/kg BIDx1, 24 h) was 1.80 fold or % and the “Bcl2 fold increase or percent reduction vs vehicle control” value (75 mg/kg BIDx1, 24 h) was 30.58 fold or %. For the same compound, the “Bid fold increase or percent reduction vs vehicle control” value (75 mg/kg BIDx1, 24 h) was 1.04 fold or %, the “Birc5 fold increase or percent reduction vs vehicle control” value (75 mg/kg BIDx1, 24 h) was 45.92 fold or % and the “Brca1 fold increase or percent reduction vs vehicle control” value (75 mg/kg BIDx1, 24 h) was 42.43 fold or %. For the same compound, the “Brca2 fold increase or percent reduction vs vehicle control” value (75 mg/kg BIDx1, 24 h) was 36.40 fold or % and the “Btg2 fold increase or percent reduction vs vehicle control” value (75 mg/kg BIDx1, 24 h) was 31.06 fold or %.
